# Reference: article PMC5182133 (Cell chemical biology, 2016)
# Key:
# DCK [1] = molecular target: T1, DCK (Homo sapiens, UniProt P27707); assay: Affinity matrix pulldown and immunoblot for DCK; format: binding; conditions: CAL-51 lysate
# CAL-51 shH6PD cells = assay: Cell viability in CAL-51 shNT vs shH6PD cells; format: cell-based; conditions: CAL-51 shH6PD vs shNT, 5 d
# A549 cells = conditions: 2 μM cytarabine, 3 days
# DCK [2] = molecular target: T1, DCK; conditions: compared to the other PARPi
# [3] = reach as high as; ref Murray et al., 2014; cited from earlier work
# [4] = ref Plummer et al., 2008; cited from earlier work
# CAL-51 H6PD-OE cells = assay: Cell viability in CAL-51 parental vs H6PD-overexpressing cells; format: cell-based; conditions: CAL-51 H6PD-OE vs parental, 5 d
# H322 cells = assay: H322 cell viability; format: cell-based; conditions: 5 d, CellTiterGlo
# CAL-51 cells = assay: Immunoblot of apoptosis markers in CAL-51 cells after PARPi treatment; format: cell-based; conditions: 48 h, 40 μM PARPi
# H6PD [5] = molecular target: T2, H6PD (Homo sapiens, UniProt O95479); assay: Affinity matrix pulldown and immunoblot for H6PD; format: binding; conditions: CAL-51 lysate; competed with 20 μM free rucaparib
# T2 sequence (O95479 20-791): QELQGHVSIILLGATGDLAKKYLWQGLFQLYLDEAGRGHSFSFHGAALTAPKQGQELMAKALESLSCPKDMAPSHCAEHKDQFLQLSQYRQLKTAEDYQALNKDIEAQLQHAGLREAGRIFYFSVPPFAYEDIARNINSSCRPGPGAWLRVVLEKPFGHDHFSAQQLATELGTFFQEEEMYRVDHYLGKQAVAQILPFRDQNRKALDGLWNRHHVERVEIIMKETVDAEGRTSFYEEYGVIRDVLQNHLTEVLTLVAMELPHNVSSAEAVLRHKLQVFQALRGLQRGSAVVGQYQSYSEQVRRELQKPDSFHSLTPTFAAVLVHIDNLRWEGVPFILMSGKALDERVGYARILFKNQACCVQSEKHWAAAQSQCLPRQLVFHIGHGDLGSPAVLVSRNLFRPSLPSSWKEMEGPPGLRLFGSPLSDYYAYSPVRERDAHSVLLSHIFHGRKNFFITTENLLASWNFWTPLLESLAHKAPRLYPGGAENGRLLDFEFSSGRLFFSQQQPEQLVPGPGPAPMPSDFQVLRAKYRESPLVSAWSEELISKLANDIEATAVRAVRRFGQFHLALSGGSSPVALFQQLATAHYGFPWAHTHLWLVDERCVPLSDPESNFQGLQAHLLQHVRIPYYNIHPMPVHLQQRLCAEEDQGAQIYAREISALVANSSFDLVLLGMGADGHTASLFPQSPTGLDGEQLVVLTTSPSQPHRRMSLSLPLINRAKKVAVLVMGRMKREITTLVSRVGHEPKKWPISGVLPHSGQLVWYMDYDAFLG
# H6PD [6] = molecular target: T2, H6PD; conditions: read-out: IC50 for H6PD inhibition (reported); ref Tagawa et al., 2015; cited from earlier work
# [7] = ref Haura et al., 2010; cited from earlier work
# T1 sequence (P27707 whole entry): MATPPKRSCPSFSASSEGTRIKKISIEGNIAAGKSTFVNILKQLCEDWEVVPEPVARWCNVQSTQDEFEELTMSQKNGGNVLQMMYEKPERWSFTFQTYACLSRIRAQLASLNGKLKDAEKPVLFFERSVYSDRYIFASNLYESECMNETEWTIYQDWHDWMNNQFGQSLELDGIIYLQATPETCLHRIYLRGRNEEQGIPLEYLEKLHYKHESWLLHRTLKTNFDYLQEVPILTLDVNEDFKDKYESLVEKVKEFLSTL
structure (smiles),measurement,setting,value
NCCCN1CCC[C@@H](c2ccc(-n3cc4cccc(C(N)=O)c4n3)cc2)C1 [c-niraparib],Enrichment of DCK by affinity matrix (immunoblot),DCK [1],confirmed
O=C(c1cc(Cc2n[nH]c(=O)c3ccccc23)ccc1F)N1CCN(C(=O)C2CC2)CC1 [olaparib],Effect of stable H6PD knockdown on potency (cell viability),CAL-51 shH6PD cells,increased the potency
NC(=O)c1cccc2cn(-c3ccc([C@@H]4CCCNC4)cc3)nc12 [niraparib],Rescue of A549 cells from cytarabine toxicity,A549 cells; DI-39 as positive control,dose-dependently rescued
same,Concentrations needed to observe reduced cytarabine toxicity,A549 cells; A549 cells,20 to 40 µM
same,Inhibition of DCK activity in cell-free extracts,DCK [2],specific inhibition
CNCc1ccc(-c2[nH]c3cc(F)cc4c3c2CCNC4=O)cc1 [rucaparib],Concentrations in murine tumors,[3],~ 20 μM
same,Plasma levels in patients,[4],2700 nM
same,Effect of stable H6PD overexpression on IC50 for inhibition of cell viability,CAL-51 H6PD-OE cells,increased the IC50
same,Viability of H322 cells at high concentrations compared to other PARPi,H322 cells,decreased more
same,PARP1 and caspase-3 cleavage compared to the other PARPi,CAL-51 cells,increased
Cn1ncnc1[C@H]1c2n[nH]c(=O)c3cc(F)cc(c23)N[C@@H]1c1ccc(F)cc1 [talazoparib],Effect of stable H6PD knockdown on potency (cell viability),CAL-51 shH6PD cells,increased the potency
CN(CCCN)Cc1ccc(-c2[nH]c3cc(F)cc4c3c2CCNC4=O)cc1 [c-rucaparib],Enrichment of H6PD by affinity matrix (immunoblot),H6PD [5],specifically enriched
O=c1c(-c2ccc(O)cc2)coc2cc(O)cc(O)c12 [genistein],IC50,H6PD [6],> 50 µM
COc1cc2ncnc(Nc3ccc(F)c(Cl)c3)c2cc1OCCCN1CCOCC1 [gefitinib],Drug concentration in human tumor tissue relative to plasma levels,[7],up to 40 fold
